In ChEMBL document CHEMBL4130353, “2-Substituted 3,7,8-trimethylnaphtho[1,2-b]furan-4,5-diones as specific L-shaped NQO1-mediated redox modulators for the treatment of non-small cell lung cancer” (Eur J Med Chem, 2017):
Activity calls are given as the source filed them. No cut-off for these calls is given here.

Columns and labels:
[1] = system: A549; test: Induction of apoptosis in human A549 cells assessed as increase in cleaved PARP expression at 10 uM after 24 hrs in presence of DIC by Western blot analysis; assay type: functional, cell-based
[2] = target: NAD(P)H dehydrogenase [quinone] 1 (Homo sapiens) (UniProt P15559); test: Substrate activity at NQO1 in human A549 cells assessed as induction of ROS-induced ERK phosphorylation at 10 uM after 3 hrs by Western blot analysis relative to control; assay type: cell-based
[3] = target: NAD(P)H dehydrogenase [quinone] 1 (Homo sapiens) (UniProt P15559); test: Substrate activity at NQO1 in human A549 cells assessed as induction of ROS-induced Akt phosphorylation at S473 at 10 uM after 3 hrs in presence of DIC by Western blot analysis relative to control; assay type: cell-based
[4] = system: A549; test: Effect on total AKT protein levels in human A549 cells at 10 uM after 3 hrs in presence of DIC by Western blot analysis relative to control; assay type: ADME, cell-based; conditions: a549, 3 h
[5] = target: NAD(P)H dehydrogenase [quinone] 1 (Homo sapiens) (UniProt P15559); test: Substrate activity at NQO1 in human A549 cells assessed as induction of enzyme-catalyzed ROS production at 10 uM after 1 to 3 hrs in presence of DIC by DCFH-DA-based flow cytometry; assay type: cell-based
[6] = system: MCF7; test: Cytotoxicity against human MCF7 cells assessed as cell growth inhibition preincubated for 24 hrs followed by compound washout measured after 72 hrs by MTT assay; assay type: functional, cell-based
[7] = system: A549; test: Induction of apoptosis in human A549 cells assessed as increase in cleaved PARP expression after 24 hrs by Western blot analysis; assay type: functional, cell-based
[8] = Effective permeability of the compound at pH 7.4 by PAMPA assay; assay type: ADME; conditions: read-out: Peff
[9] = target: NAD(P)H dehydrogenase [quinone] 1 (Homo sapiens) (UniProt P15559); test: Substrate activity at NQO1 in human A549 cells assessed as induction of ROS-induced JNK phosphorylation at 1 uM after 3 hrs by Western blot analysis relative to control; assay type: cell-based
[10] = target: NAD(P)H dehydrogenase [quinone] 1 (Homo sapiens) (UniProt P15559); test: Substrate activity at NQO1 in human A549 cells assessed as induction of ROS-induced ERK phosphorylation at 10 uM after 3 hrs in presence of DIC by Western blot analysis relative to control; assay type: cell-based
[11] = target: NAD(P)H dehydrogenase [quinone] 1 (Homo sapiens) (UniProt P15559); test: Substrate activity at NQO1 in human A549 cells assessed as induction of ROS-induced p38 phosphorylation at T180/Y182 at 5 uM after 3 hrs by Western blot analysis relative to control; assay type: cell-based
[12] = target: NAD(P)H dehydrogenase [quinone] 1 (Homo sapiens) (UniProt P15559); test: Substrate activity at NQO1 in human A549 cells assessed as induction of ROS-induced Akt phosphorylation at S473 at 10 uM after 3 hrs by Western blot analysis relative to control; assay type: cell-based
[13] = target: NAD(P)H dehydrogenase [quinone] 1 (Homo sapiens) (UniProt P15559); test: Substrate activity at NQO1 in human A549 cells assessed as induction of ROS-induced JNK phosphorylation at 10 uM after 3 hrs in presence of NAC by Western blot analysis relative to control; assay type: cell-based
[14] = target: NAD(P)H dehydrogenase [quinone] 1 (Homo sapiens) (UniProt P15559); test: Substrate activity at NQO1 in human A549 cells assessed as induction of ROS-induced p38 phosphorylation at T180/Y182 at 1 uM after 3 hrs by Western blot analysis relative to control; assay type: cell-based
[15] = system: A549; test: Effect on total p38 protein levels in human A549 cells at 5 uM after 3 hrs by Western blot analysis relative to control; assay type: ADME, cell-based; conditions: a549, 3 h
[16] = target: NAD(P)H dehydrogenase [quinone] 1 (Homo sapiens) (UniProt P15559); test: Substrate activity at NQO1 in human A549 cells assessed as induction of ROS-induced Akt phosphorylation at […] at 10 uM after 3 hrs in presence of DIC by Western blot analysis relative to control; assay type: cell-based
[17] = system: A549; test: Effect on total ERK protein levels in human A549 cells at 1 uM after 3 hrs by Western blot analysis relative to control; assay type: ADME, cell-based; conditions: a549, 3 h
[18] = target: NAD(P)H dehydrogenase [quinone] 1 (Homo sapiens) (UniProt P15559); test: Substrate activity at NQO1 in human A549 cells assessed as induction of ROS-induced Akt phosphorylation at […] at 10 uM after 3 hrs in presence of NAC by Western blot analysis relative to control; assay type: cell-based

Sequence of NAD(P)H dehydrogenase [quinone] 1 (Homo sapiens) (P15559 whole entry): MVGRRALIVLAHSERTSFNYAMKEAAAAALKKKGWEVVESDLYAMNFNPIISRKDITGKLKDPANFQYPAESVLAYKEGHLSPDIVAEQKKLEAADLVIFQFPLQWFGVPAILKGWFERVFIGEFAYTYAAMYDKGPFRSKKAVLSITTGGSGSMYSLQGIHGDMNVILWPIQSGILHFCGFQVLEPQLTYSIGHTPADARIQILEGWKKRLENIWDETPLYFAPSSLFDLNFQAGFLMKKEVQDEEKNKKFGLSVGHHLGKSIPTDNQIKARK

fold change (FC) [2]: 2.49
fold change (FC) [3]: 1.36
fold change (FC) [4]: 1.15
Activity [5]: inactive
Papp [8]: 46.5 ×10⁻⁶ cm/s
fold change (FC) [9]: 17.4
fold change (FC) [10]: 1.27
fold change (FC) [11]: 12.1
fold change (FC) [12]: 2.05
fold change (FC) [13]: 12.5
fold change (FC) [14]: 11.1
fold change (FC) [15]: 1.1
fold change (FC) [16]: 1.96
fold change (FC) [17]: 1.01
fold change (FC) [18]: 2.8
Structure (SMILES): Cc1cc2c(cc1C)-c1oc(CNc3ccc(CN4CCOCC4)cc3)c(C)c1C(=O)C2=O
Activity [1]: inactive
IC50 [6]: 4.7 µM
Activity [7]: Dose-dependent effect
